Measured values: patent US20080096870A1, “Methods and Materials for Treating Mental Illness” (priority 2004, published 2008)

What was measured:
AMPA/kainate receptor = test: AMPA/kainate receptor-mediated mEPSCs, patch-clamp recording in cerebrocortical cultured neurons; assay type: cell-based, rat; settings: TTX-containing solution, −60 mV, MK-801 10 μM; concentration-dependent
Method: (§1) Neuronal Cultures. Cerebral cortices were dissected from newborn rats and treated with 0.25% trypsin to dissociate the cells. Dissociated cells were resuspended in Dulbecco's Modified Eagle's Medium (DMEM) containing 10% plasma derived horse serum (PDHS) and were plated in poly-L-lysine-coated, 35 mm Nunc plastic tissue culture dishes (3.0×10^6 cells/dish/2ml media). Cultures were maintained in an atmosphere of 5% CO2/95% air.
Electrophysiological recordings: Voltage- and current-clamp recordings of membrane ionic currents and potentials were conducted by using Axopatch 200B and Axoclamp 1B amplifiers (Axon Instruments, Foster City, Calif.). […]
(§2) The miniature EPSCs were recorded in TTX-containing (0.3-1 μM), Mg^2+-free (in case of NMDA receptor recording) extracellular solution at Vh=−60 mV. […]
The digitized data was analyzed off-line using the Mini-Analysis Program (Synaptosoft, Leonia, N.J.) or the pCLAMP9 (Axon Instruments) (Axon Instruments, Union City, Calif.). […]
FIG. 3. […] A: Representative traces of AMPA-kainate mEPSCs recorded from a cortical neuron under the following conditions: control; in the presence of 3,5-DBr-L-Phe (100 μM); after washout of 3,5-DBr-L-Phe. AMPA/kainate receptor-mediated currents were recorded in TTX-containing (0.3 μM) extracellular solution at holding membrane potential of −60 mV. […] Data is expressed as mean±SEM of 6-7 cells. […]

glutamate release = test: Evoked paired EPSCs (2nd/1st amplitude ratio) in cerebrocortical cultured neuron; assay type: cell-based, rat; settings: 100 μM, Mg2+ 1 mM, Vh −60 mV
Method: as §1
(§3) Electrophysiological recordings: Voltage- and current-clamp recordings of membrane ionic currents and potentials were conducted by using Axopatch 200B and Axoclamp 1B amplifiers (Axon Instruments, Foster City, Calif.). The perforated nystatin- and gramicidin-based patch-clamp recording techniques were used to reduce nonspecific rundown of intracellular processes. Neurons were used for electrophysiological recordings between 12 and 27 days in vitro. […] Patch microelectrodes were pulled from 1.5 mm borosilicate glass tubing using a two-stage vertical pipette puller (Narishige, East Meadow, N.Y.). […] For rapid application of agonist-containing solutions to neurons, the SF-77B system (Warner Instrument Corp., Hamden, Conn.) was used.
FIG. 4. […] A: Effect of 3,5-DBr-L-Phe on the evoked EPSCs in rat cerebrocortical cultured neuron. Examples of average EPSCs (20 traces average) in control conditions (open circle), in 3,5-DBr-L-Phe (filled circle). Synaptic responses were evoked by applying two sub-threshold electric stimuli (0.4-1 ms, 50-90 V, 250 ms apart) to an extracellular electrode (a patch electrode filled with the extracellular solution) positioned in the vicinity of the presynaptic neuron. Sweeps were recorded at 10 s intervals. After 20 sweeps, 100 μM 3,5-DBr-L-Phe was added. Neuron was held in whole-cell mode at Vh=−60 mV in Mg^2+ (1 mM) containing extracellular solution. […] The amplitude of the 1st and 2nd EPSCs were measured against the baseline; each point represents an average of five subsequent sweeps. Data expressed as mean±S.E.M. for 7 cells. *, P<0.01 compared to control.

NMDA receptor [1] = test: NMDA receptor-mediated currents, patch-clamp recording in cultured cerebrocortical neurons; assay type: cell-based, rat; settings: for effect on NMDA receptor-mediated current: rat cerebrocortical neurons, TTX-containing, Mg2+-free extracellular solution, holding potential −60 mV, concentration-dependent
[2] = system: rat cerebrocortical cultured neurons; test: Elicited action potentials, current-clamp in cerebrocortical cultured neurons; assay type: cell-based; settings: 100 μM; inward current pulses 2 ms, 2 nA; 5 of 5 neurons
Method: as §1
Electrophysiological recordings: Voltage- and current-clamp recordings of membrane ionic currents and potentials were conducted by using Axopatch 200B and Axoclamp 1B amplifiers (Axon Instruments, Foster City, Calif.). The perforated nystatin- and gramicidin-based patch-clamp recording techniques were used to reduce nonspecific rundown of intracellular processes. Neurons were used for electrophysiological recordings between 12 and 27 days in vitro. […] Patch microelectrodes were pulled from 1.5 mm borosilicate glass tubing using a two-stage vertical pipette puller (Narishige, East Meadow, N.Y.). […]
C: Examples of action potentials elicited by depolarizing the membrane with inward current pulses of 2 ms duration and 2 nA amplitude in control (before application of 3,5-DBr-L-Phe), in the presence of 3,5-DBr-L-Phe (100 μM) and after wash-out of the drug. Similar responses were recorded from 5 of 5 neurons.

AMPA-kainate receptors = test: AMPA-activated currents (IAMPA) in cerebrocortical cultured neurons; assay type: cell-based, rat; settings: for effect on activity of postsynaptic AMPA-kainate receptors (AMPA/kainate receptor function): rat cerebrocortical cultured neurons
Method: as §1, §3
The miniature EPSCs were recorded in TTX-containing (0.3-1 μM), Mg^2+-free (in case of NMDA receptor recording) extracellular solution at Vh=−60 mV. In order to isolate the NMDA component of GluR-mediated EPSCs, the non-NMDAR (AMPA/kainate) antagonist NBQX (10-20 μM) was added to extracellular solutions. To isolate the non-NMDAR-mediated EPSCs, the experiments were performed in the presence of NMDAR channel blocker, MK-801 (5-10 μM), or in the presence of the NMDAR antagonist, AP-5 (20 μM). Strychnine (1 μM) and picrotoxin (20 μM) were added to the extracellular solution to block glycine and GABA receptors, respectively. […] The basic extracellular solution contained (in mM): NaCl 140, KCl 4, CaCl2 2, MgCl2 1,4-(2-hydroxyethyl)-1-piperazineethanesulfonic acid (HEPES) 10, and glucose 11. The pH of the extracellular solution was adjusted to 7.4 using NaOH. The main solution for filling the patch electrodes contained (in mM): Cs gluconate 135, NaCl 5, KCl 10, MgCl2 1, CaCl2 1, EGTA 11, HEPES 10, Na2ATP 2, Na2GTP […]. The pH of the intracellular solution was adjusted to 7.4 using CsOH. […]
C and D: 3,5-DBr-L-Phe depresses AMPA-activated currents (IAMPA) in rat cerebrocortical cultured neurons. Examples of AMPA-activated currents recorded from the same rat cortical neuron before application of 3,5-DBr-L-Phe, during exposure to different concentrations of BrPhe (noted in figure) and after washout of 3,5-DBr-L-Phe (C). […] Data expressed as mean±S.E.M. for 3-5 cells. *, P<0.01 compared to control.

GABA receptor = test: GABA receptor-mediated mIPSCs in cerebrocortical cultured neurons; assay type: cell-based, rat; settings: 100 μM; TTX-containing solution, −60 mV
Method: as §1
Electrophysiological recordings: Voltage- and current-clamp recordings of membrane ionic currents and potentials were conducted by using Axopatch 200B and Axoclamp 1B amplifiers (Axon Instruments, Foster City, Calif.). The perforated nystatin- and gramicidin-based patch-clamp recording techniques were used to reduce nonspecific rundown of intracellular processes. Neurons were used for electrophysiological recordings between 12 and 27 days in vitro. […]
as §2
FIG. 5. […] A: Representative GABA receptor-mediated mIPSCs recorded from the same neuron before (control), during (100 μM), and after (wash) application of 3,5-DBr-L-Phe. GABA receptor-mediated mIPSCs were recorded in TTX-containing (0.3 μM) extracellular solution at holding membrane potential of −60 mV. […] Summary data is expressed as mean±SEM of 5 cells.

NMDA receptor [3] = settings: see ref. 12 and 13; cited from earlier work

SMILES: N[C@@H](Cc1cc(Br)cc(Br)c1)C(=O)O [3,5-DBr-L-Phe, 3,5-dibromo-L-phenylalanine]
- effect on AMPA/kainate receptor-mediated mEPSCs (frequency and amplitude) (AMPA/kainate receptor): depresses
- effect on glutamate release (glutamate release): causes depression
- effect on glutamate release (glutamate release; listed as 3,5-dibromo-L-Phe): significantly depresses
- sensitivity of 3,5-DBr-L-Phe-activated current to NMDA receptor specific antagonists (NMDA receptor [1]; 3,5-DBr-L-Phe 100 μM, AP-5 20 μM, 6 neurons): is blocked by NMDA receptor specific antagonists
- dependence of activating effect on NMDA receptor-mediated current on NMDA concentration (NMDA receptor [1]; 3,5-DBr-L-Phe 100 μM, NMDA 3-1000 μM, glycine 0.1 μM and 10 μM): depends on concentration of NMDA in extracellular solution
- dependence of activating effect on NMDA receptor-mediated current on glycine concentration (NMDA receptor [1]; 3,5-DBr-L-Phe 100 μM, different concentrations of glycine): does not depend on concentration of glycine
- effect on NMDA receptor-mediated current (NMDA receptor [1]): activates
- effect on NMDA receptor-mediated current (NMDA receptor [1]; listed as 3,5-dibromo-L-Phe): augment
- effect on elicited action potentials [2]: does not significantly affect
- effect on AMPA-activated currents (IAMPA) (AMPA-kainate receptors; AMPA 3 μM, exposure started 45 s before AMPA, different concentrations): depresses
- effect on activity of postsynaptic AMPA-kainate receptors (AMPA/kainate receptor function) (AMPA-kainate receptors): causes depression
- effect on activity of postsynaptic AMPA-kainate receptors (AMPA/kainate receptor function) (AMPA-kainate receptors; listed as 3,5-dibromo-L-Phe): significantly depresses
- effect on GABA receptor-mediated mIPSCs (amplitude and frequency) (GABA receptor): does not significantly affect

SMILES: N[C@@H](Cc1cccc(Br)c1)C(=O)O [3-bromo-L-Phe, 3-bromo-L-phenylalanine]
- effect on glutamate release (glutamate release): significantly depresses
- effect on NMDA receptor-mediated current (NMDA receptor [1]): augment
- effect on activity of postsynaptic AMPA-kainate receptors (AMPA/kainate receptor function) (AMPA-kainate receptors): significantly depresses

SMILES: NC(CCCP(=O)(O)O)C(=O)O (stereo not drawn) [AP-5, reference compound]
- effect of antagonist on 3,5-DBr-L-Phe-activated current (NMDA receptor [1]; AP-5 20 μM, 3,5-DBr-L-Phe 100 μM): depression of 3,5-DBr-L-Phe-activated current

SMILES: N[C@@H](Cc1ccccc1)C(=O)O [L-Phe, L-Phenylalanine]
- effect on NMDA receptor activity (NMDA receptor [3]): opposite, depressant, effect
